Reference: patent US20210251963A1, “UREA DERIVATIVES FOR USE IN THE TREATMENT OF SUBJECTS WITH ELEVATED EXPRESSION AND/OR ACTIVITY OF SRPK1” (Scandion Oncology A/S, priority 2018, published 2021)

Key:
[1] = biological target: T1, Aurora B (Homo sapiens, UniProt Q96GD4); test: Premier Screen kinase activity screening (33P ATP filter binding); format: biochemical; details: 10 μM SCO-101, mean of assay duplicates, read-out: Kinase activity (percentage of DMSO control)
T1 construct: purchased MRC in Dundee (Premier Screen service)
From the text: (§1) The kinase activity screening was done at MRC in Dundee. The screen was a so-called “Premier Screen” with 140 kinases. More specific information can be found here: http://www.kinase-screen.mrc.ac.uk/services/premier-screen
(§2) The method is based on a radioactive filter binding assay using 33P ATP (Hastie, et al 2006. Nat Protoc. 2006; 1(2):968-71; Bain, et al 2007. Biochem J. 2007 Dec. 15; 408(3):297-315). This method is sensitive, accurate and provides a direct measure of kinase enzyme activity. A concentration of 10 μM SCO-101 was used.
(§3) In the table below, the data is portrayed as the mean percentage activity of assay duplicates and a standard deviation. These percentage activities were calculated in comparison to DMSO controls. 10 μM SCO-101 reduced the activity of SRPK1 to 6% of the DMSO control.

[2] = biological target: T2, BRSK2 (Homo sapiens, UniProt Q8IWQ3); test: as above; format: biochemical; details: 10 μM SCO-101, mean of assay duplicates, read-out: Kinase activity (percentage of DMSO control)
T2 construct: MRC in Dundee (screening service)
From the text: as §1, §2, §3

[3] = biological target: T3, CAMKKb (Homo sapiens, UniProt Q96RR4); test: as above; format: biochemical; details: 10 μM SCO-101, mean of assay duplicates, read-out: Kinase activity (percentage of DMSO control)
T3 construct: MRC in Dundee (screening service)
From the text: as §1, §2, §3

[4] = biological target: T4, CHK1 (Homo sapiens, UniProt O14757); test: as above; format: biochemical; details: 10 μM SCO-101, mean of assay duplicates, read-out: Kinase activity (percentage of DMSO control)
T4 construct: purchased MRC in Dundee (Premier Screen service)
From the text: as §1, §2, §3

[5] = biological target: T5, CK1δ (Homo sapiens, UniProt P48730); test: as above; format: biochemical; details: 10 μM SCO-101, mean of assay duplicates, read-out: Kinase activity (percentage of DMSO control)
T5 construct: purchased MRC Dundee, Premier Screen (contract screening service)
T5 sequence (P48730 whole entry): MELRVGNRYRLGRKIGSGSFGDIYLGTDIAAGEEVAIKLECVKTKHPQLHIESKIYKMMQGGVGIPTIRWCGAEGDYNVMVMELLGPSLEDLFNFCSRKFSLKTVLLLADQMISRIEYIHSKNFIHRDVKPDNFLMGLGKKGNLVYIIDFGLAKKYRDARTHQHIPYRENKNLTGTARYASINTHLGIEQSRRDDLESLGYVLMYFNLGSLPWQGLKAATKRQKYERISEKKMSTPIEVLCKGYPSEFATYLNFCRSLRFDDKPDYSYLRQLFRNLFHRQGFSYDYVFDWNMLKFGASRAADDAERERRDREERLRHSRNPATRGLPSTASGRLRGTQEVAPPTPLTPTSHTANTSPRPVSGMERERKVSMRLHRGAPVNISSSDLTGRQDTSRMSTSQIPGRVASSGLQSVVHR
From the text: as §1, §2, §3

[6] = biological target: T6, DDR2 (Homo sapiens, UniProt Q16832); test: as above; format: biochemical; details: 10 μM SCO-101, mean of assay duplicates, read-out: Kinase activity (percentage of DMSO control)
T6 construct: purchased MRC in Dundee (Premier Screen service)
From the text: as §1, §2, §3

[7] = biological target: T7, ERK5 (Homo sapiens, UniProt Q13164); test: as above; format: biochemical; details: 10 μM SCO-101, mean of assay duplicates, read-out: Kinase activity (percentage of DMSO control)
T7 construct: MRC in Dundee (screening service)
From the text: as §1, §2, §3

[8] = biological target: T8, GSK3b (Homo sapiens, UniProt P49841); test: as above; format: biochemical; details: 10 μM SCO-101, mean of assay duplicates, read-out: Kinase activity (percentage of DMSO control)
T8 construct: MRC Dundee (screening service)
From the text: as §1, §2, §3

[9] = biological target: T9, HER4 (Homo sapiens, UniProt Q15303); test: as above; format: biochemical; details: 10 μM SCO-101, mean of assay duplicates, read-out: Kinase activity (percentage of DMSO control)
T9 construct: MRC Dundee (screening service)
From the text: as §1, §2, §3

[10] = biological target: T10, MAP4K5 (Homo sapiens, UniProt Q9Y4K4); test: as above; format: biochemical; details: 10 μM SCO-101, mean of assay duplicates, read-out: Kinase activity (percentage of DMSO control)
T10 construct: purchased MRC Dundee, Premier Screen (contract screening service)
From the text: as §1, §2, §3

[11] = biological target: T11, MARK1 (Homo sapiens, UniProt Q9P0L2); test: as above; format: biochemical; details: 10 μM SCO-101, mean of assay duplicates, read-out: Kinase activity (percentage of DMSO control)
T11 construct: purchased MRC in Dundee (Premier Screen service)
From the text: as §1, §2, §3

[12] = biological target: T12, MARK3 (Homo sapiens, UniProt P27448); test: as above; format: biochemical; details: 10 μM SCO-101, mean of assay duplicates, read-out: Kinase activity (percentage of DMSO control)
T12 construct: MRC Dundee (screening service)
From the text: as §1, §2, §3

[13] = biological target: T13, MELK (Homo sapiens, UniProt Q14680); test: as above; format: biochemical; details: 10 μM SCO-101, mean of assay duplicates, read-out: Kinase activity (percentage of DMSO control)
T13 construct: MRC Dundee (screening service)
T13 sequence (Q14680 whole entry, species assumed): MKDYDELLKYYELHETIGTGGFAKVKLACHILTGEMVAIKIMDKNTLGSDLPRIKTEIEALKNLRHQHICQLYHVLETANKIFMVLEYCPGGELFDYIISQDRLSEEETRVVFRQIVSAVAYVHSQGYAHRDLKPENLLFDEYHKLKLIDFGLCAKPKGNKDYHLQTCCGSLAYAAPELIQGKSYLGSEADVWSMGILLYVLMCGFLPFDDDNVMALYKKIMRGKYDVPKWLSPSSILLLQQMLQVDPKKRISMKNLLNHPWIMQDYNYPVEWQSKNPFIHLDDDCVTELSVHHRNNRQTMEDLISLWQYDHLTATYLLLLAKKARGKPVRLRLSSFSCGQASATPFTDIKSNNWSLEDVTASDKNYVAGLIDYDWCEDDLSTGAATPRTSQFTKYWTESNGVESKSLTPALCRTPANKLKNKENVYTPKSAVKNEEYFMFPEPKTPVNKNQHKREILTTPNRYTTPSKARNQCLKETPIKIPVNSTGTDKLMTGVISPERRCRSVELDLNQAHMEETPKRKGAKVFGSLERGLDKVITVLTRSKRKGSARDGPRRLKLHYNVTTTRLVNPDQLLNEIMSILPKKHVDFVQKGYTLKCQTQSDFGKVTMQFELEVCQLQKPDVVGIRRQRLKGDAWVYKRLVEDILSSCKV
From the text: as §1, §2, §3

[14] = biological target: T14, MKK2 (Homo sapiens, UniProt P36507); test: as above; format: biochemical; details: 10 μM SCO-101, mean of assay duplicates, read-out: Kinase activity (percentage of DMSO control)
T14 construct: MRC in Dundee (screening service)
From the text: as §1, §2, §3

[15] = biological target: T15, MNK1 (Homo sapiens, UniProt Q9BUB5); test: as above; format: biochemical; details: 10 μM SCO-101, mean of assay duplicates, read-out: Kinase activity (percentage of DMSO control)
T15 construct: MRC in Dundee (screening service)
T15 sequence (Q9BUB5 whole entry, species assumed): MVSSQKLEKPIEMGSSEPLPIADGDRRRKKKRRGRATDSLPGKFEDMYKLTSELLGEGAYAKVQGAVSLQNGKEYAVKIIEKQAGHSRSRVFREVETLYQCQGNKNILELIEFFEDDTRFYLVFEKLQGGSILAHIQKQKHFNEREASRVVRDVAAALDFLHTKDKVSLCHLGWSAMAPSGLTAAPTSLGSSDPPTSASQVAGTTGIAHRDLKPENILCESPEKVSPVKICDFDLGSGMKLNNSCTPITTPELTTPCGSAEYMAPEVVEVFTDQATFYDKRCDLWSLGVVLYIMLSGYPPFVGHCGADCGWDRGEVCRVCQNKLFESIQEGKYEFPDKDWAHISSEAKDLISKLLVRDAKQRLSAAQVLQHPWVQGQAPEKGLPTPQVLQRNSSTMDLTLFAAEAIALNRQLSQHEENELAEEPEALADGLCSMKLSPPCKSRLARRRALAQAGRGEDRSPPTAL
From the text: as §1, §2, §3

[16] = biological target: MPSK1 (Homo sapiens, UniProt O75716); test: as above; format: biochemical; details: 10 μM SCO-101, mean of assay duplicates, read-out: Kinase activity (percentage of DMSO control)
From the text: as §1, §2, §3

[17] = biological target: T16, NEK2a (Homo sapiens, UniProt P51955); test: as above; format: biochemical; details: 10 μM SCO-101, mean of assay duplicates, read-out: Kinase activity (percentage of DMSO control)
T16 construct: purchased MRC in Dundee (Premier Screen service)
From the text: as §1, §2, §3

[18] = biological target: T17, NUAK1 (Homo sapiens, UniProt O60285); test: as above; format: biochemical; details: 10 μM SCO-101, mean of assay duplicates, read-out: Kinase activity (percentage of DMSO control)
T17 construct: purchased MRC in Dundee (Premier Screen service)
T17 sequence (O60285 whole entry, species assumed): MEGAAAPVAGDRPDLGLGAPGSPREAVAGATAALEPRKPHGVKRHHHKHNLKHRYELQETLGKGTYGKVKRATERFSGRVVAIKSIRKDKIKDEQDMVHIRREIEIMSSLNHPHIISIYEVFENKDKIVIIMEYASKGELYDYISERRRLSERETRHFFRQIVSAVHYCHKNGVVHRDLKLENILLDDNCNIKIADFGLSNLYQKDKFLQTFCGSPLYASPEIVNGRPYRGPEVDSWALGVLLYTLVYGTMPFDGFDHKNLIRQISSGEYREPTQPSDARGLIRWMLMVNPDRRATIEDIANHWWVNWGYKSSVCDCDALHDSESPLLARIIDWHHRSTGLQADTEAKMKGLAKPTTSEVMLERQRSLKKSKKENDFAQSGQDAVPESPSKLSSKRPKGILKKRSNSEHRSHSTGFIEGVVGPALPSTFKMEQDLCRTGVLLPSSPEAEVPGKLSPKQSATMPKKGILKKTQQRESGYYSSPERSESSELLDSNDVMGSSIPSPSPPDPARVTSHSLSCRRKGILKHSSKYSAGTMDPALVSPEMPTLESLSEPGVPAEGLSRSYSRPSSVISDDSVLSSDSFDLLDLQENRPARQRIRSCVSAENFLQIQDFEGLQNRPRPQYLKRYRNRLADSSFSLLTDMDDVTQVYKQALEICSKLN
From the text: as §1, §2, §3

[19] = biological target: T18, PKBb (Homo sapiens, UniProt P31751); test: as above; format: biochemical; details: 10 μM SCO-101, mean of assay duplicates, read-out: Kinase activity (percentage of DMSO control)
T18 construct: MRC in Dundee (screening service)
From the text: as §1, §2, §3

[20] = biological target: PKCa (Homo sapiens, UniProt P17252); test: as above; format: biochemical; details: 10 μM SCO-101, mean of assay duplicates, read-out: Kinase activity (percentage of DMSO control)
From the text: as §1, §2, §3

[21] = biological target: T19, RSK1 (Homo sapiens, UniProt Q15418); test: as above; format: biochemical; details: 10 μM SCO-101, mean of assay duplicates, read-out: Kinase activity (percentage of DMSO control)
T19 construct: MRC Dundee (screening service)
From the text: as §1, §2, §3

[22] = biological target: T20, S6K1 (Homo sapiens, UniProt P23443); test: as above; format: biochemical; details: 10 μM SCO-101, mean of assay duplicates, read-out: Kinase activity (percentage of DMSO control)
T20 construct: MRC in Dundee (screening service)
From the text: as §1, §2, §3

[23] = biological target: T21, SIK2 (Homo sapiens, UniProt Q9H0K1); test: as above; format: biochemical; details: 10 μM SCO-101, mean of assay duplicates, read-out: Kinase activity (percentage of DMSO control)
T21 construct: MRC in Dundee (screening service)
T21 sequence (Q9H0K1 whole entry, species assumed): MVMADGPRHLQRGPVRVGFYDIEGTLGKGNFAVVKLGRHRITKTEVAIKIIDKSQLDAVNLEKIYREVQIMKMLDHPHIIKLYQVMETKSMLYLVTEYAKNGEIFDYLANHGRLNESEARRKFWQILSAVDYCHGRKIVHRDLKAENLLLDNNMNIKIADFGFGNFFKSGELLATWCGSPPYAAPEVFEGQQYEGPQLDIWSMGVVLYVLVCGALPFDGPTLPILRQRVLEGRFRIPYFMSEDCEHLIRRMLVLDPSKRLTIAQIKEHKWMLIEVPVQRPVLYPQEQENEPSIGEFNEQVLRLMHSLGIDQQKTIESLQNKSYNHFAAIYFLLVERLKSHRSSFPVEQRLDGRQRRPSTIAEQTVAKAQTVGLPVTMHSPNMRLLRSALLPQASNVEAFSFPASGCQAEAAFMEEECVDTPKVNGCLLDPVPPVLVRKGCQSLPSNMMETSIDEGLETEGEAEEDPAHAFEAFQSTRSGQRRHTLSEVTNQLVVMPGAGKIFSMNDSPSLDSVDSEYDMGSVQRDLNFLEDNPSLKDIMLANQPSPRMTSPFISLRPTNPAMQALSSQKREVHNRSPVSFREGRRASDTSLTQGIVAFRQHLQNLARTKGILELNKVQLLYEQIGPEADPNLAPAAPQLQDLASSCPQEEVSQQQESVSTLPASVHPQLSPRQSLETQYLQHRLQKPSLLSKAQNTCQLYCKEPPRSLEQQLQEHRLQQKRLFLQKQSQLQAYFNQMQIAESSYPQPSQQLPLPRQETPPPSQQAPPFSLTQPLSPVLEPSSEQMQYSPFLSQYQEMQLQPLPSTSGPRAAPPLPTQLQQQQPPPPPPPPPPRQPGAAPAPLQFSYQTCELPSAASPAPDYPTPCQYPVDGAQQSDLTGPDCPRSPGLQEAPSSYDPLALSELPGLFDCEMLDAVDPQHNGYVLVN
From the text: as §1, §2, §3

[24] = biological target: T22, STK33 (Homo sapiens, UniProt Q9BYT3); test: as above; format: biochemical; details: 10 μM SCO-101, mean of assay duplicates, read-out: Kinase activity (percentage of DMSO control)
T22 construct: MRC Dundee (screening service)
T22 sequence (Q9BYT3 whole entry, species assumed): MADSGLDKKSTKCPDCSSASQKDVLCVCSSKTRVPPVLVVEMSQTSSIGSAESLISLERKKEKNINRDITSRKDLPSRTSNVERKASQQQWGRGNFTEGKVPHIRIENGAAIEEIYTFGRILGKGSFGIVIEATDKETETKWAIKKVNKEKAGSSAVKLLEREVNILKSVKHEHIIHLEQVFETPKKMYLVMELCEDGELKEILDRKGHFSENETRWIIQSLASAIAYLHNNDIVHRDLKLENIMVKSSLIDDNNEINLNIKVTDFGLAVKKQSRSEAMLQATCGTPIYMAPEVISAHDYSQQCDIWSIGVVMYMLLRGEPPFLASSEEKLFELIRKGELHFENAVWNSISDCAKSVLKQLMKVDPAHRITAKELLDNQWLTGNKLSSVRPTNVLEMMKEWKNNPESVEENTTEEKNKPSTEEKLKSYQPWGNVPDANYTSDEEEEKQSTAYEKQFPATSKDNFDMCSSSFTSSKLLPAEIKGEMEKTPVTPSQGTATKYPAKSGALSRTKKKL
From the text: as §1, §2, §3

[25] = biological target: TAO1; test: as above; format: biochemical; details: 10 μM SCO-101, mean of assay duplicates
From the text: as §1, §2, §3

[26] = biological target: T23, TESK1 (Homo sapiens, UniProt Q15569); test: as above; format: biochemical; details: 10 μM SCO-101, mean of assay duplicates, read-out: Kinase activity (percentage of DMSO control)
T23 construct: purchased MRC in Dundee (Premier Screen service)
T23 sequence (Q15569 whole entry, species assumed): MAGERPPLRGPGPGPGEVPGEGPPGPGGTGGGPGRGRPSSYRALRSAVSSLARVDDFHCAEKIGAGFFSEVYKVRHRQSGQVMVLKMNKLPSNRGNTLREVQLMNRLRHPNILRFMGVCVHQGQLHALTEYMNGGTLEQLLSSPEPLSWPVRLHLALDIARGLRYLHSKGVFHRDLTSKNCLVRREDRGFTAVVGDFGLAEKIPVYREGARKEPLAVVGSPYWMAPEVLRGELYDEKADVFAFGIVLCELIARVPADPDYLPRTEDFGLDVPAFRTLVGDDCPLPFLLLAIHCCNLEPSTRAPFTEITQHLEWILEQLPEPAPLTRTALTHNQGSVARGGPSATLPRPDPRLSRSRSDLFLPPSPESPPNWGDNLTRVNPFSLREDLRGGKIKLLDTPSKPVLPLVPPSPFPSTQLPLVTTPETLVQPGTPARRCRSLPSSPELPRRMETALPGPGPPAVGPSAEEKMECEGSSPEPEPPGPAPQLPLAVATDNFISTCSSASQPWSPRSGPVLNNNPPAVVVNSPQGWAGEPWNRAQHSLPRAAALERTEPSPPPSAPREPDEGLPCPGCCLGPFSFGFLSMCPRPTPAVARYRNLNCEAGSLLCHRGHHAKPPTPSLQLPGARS
From the text: as §1, §2, §3

[27] = biological target: T24, TIE2 (Homo sapiens, UniProt Q02763); test: as above; format: biochemical; details: 10 μM SCO-101, mean of assay duplicates, read-out: Kinase activity (percentage of DMSO control)
T24 construct: MRC Dundee (screening service)
From the text: as §1, §2, §3

[28] = biological target: T25, p38a MAPK (Homo sapiens, UniProt Q16539); test: as above; format: biochemical; details: 10 μM SCO-101, mean of assay duplicates, read-out: Kinase activity (percentage of DMSO control)
T25 construct: purchased MRC in Dundee (Premier Screen service)
From the text: as §1, §2, §3

[29] = biological target: p38b MAPK (Homo sapiens, UniProt Q15759); test: as above; format: biochemical; details: 10 μM SCO-101, mean of assay duplicates, read-out: Kinase activity (percentage of DMSO control)
From the text: as §1, §2, §3

[30] = Cell viability (MTT assay); format: cell-based; details: human, HT29 SN38 resistant colon cancer cells, HT29 SN38 resistant, SCO-101 20 μM alone, read-out: cell viability, % of untreated control cells
Description: (§4) SN38 was applied to a SN38 sensitive colon cancer cell line (“HT29 parental”) and to a SN38 resistant colon cancer cell line (“HT29 SN38 resistant”).
(§5) The Log Concentration (μM) used are—1 for SN38. Data represents cell viability data (MTT assay) and cells were incubated with drugs for 72 hours.
(§6) The Log Concentrations (μM) used are—1 for SN38, and 1.5 for both Srpkin340 and Sphinx 31. Data represents cell viability data (MTT assay) and cells were incubated with drugs for 72 hours.

[31] = system: HT29 SN38 resistant colon cancer cells; test: Cell viability (MTT assay); format: cell-based; details: 72 hours
Description: as §4, §5, §6

O=C(Nc1cc(C(F)(F)F)cc(C(F)(F)F)c1)Nc1ccc(Br)cc1-c1nnn[nH]1 [SCO-101]
remaining activity at 10 µM [1]: 61%
remaining activity at 10 µM [2]: 81%
remaining activity at 10 µM [3]: 94%
remaining activity at 10 µM [4]: 195%
remaining activity at 10 µM [5]: 107%
remaining activity at 10 µM [6]: 68%
remaining activity at 10 µM [7]: 90%
remaining activity at 10 µM [8]: 99%
remaining activity at 10 µM [9]: 98%
remaining activity at 10 µM [10]: 108%
remaining activity at 10 µM [11]: 74%
remaining activity at 10 µM [12]: 99%
remaining activity at 10 µM [13]: 95%
remaining activity at 10 µM [14]: 94%
remaining activity at 10 µM [15]: 91%
remaining activity at 10 µM [16]: 115%
remaining activity at 10 µM [17]: 134%
remaining activity at 10 µM [18]: 49%
remaining activity at 10 µM [19]: 84%
remaining activity at 10 µM [20]: 116%
remaining activity at 10 µM [21]: 100%
remaining activity at 10 µM [22]: 92%
remaining activity at 10 µM [23]: 81%
remaining activity at 10 µM [24]: 100%
Kinase activity (percentage of DMSO control) [25]: 116 percentage of DMSO control
remaining activity at 10 µM [26]: 54%
remaining activity at 10 µM [27]: 95%
remaining activity at 10 µM [28]: 63%
remaining activity at 10 µM [29]: 115%
viability at 72 h, 20 μM [30]: 96%
viability at 20 µM ([31]; Homo sapiens, HT-29, HT29 SN38 resistant, combination of SN38 0.1 μM and SCO-101 20 μM, read-out: cell viability, % of untreated control cells): 22%
re-sensitization of SN38 resistant HT29 cells to SN38 ([31]; SCO-101 20 μM with SN38 0.1 μM): re-sensitization
